Experimental data from patent publication US20230391868A1, “COMPOSITIONS FOR AND METHODS OF TREATING CANCER” (The George Washington University, priority 2022, published 2023).

Tests used:
WM1361A melanoma cells = test: CD47 gene expression upon IFNγ in WM1361A cells; format: cell-based, human; settings: NextA 2.5 μM, 5 μM, and 10 μM, 12 hr post-stimulation (FIG. 3K)
Description: (§1) qRT-PCR: Total RNA was extracted from cells using the Trizol reagent according to manufacturer's instructions (ThermoFisher Scientific, 15596018). Samples were then processed immediately or stored at −80° C. RNA was quantified using a NanoDrop One Spectrophotometer (ThermoFisher Scientific). The 260/280 ratios were routinely over 1.8. Sample cDNA was produced using the iScript cDNA synthesis kit (Bio-Rad, 1708891). Target mRNA was quantified using MyIQ single-color real-time PCR detection system from Bio-Rad (Bio-Rad, Hercules, CA) and iQ SYBR green Supermix (Bio-Rad, 1708882). […] Quantification is expressed in arbitrary units and target mRNA levels were normalized to R-actin expression.
This phenomenon was further examined in human melanoma cell lines to test the translational application of the results obtained using mouse models. […] Furthermore, the effects of HDAC6 KD on IFNγ-driven CD47 upregulation was analyzed. […] The effects of pharmacological inhibition of HDAC6 in other human melanoma cell lines (WM1361A and WM793) were also assessed. […]

SIRPα = SIRPα gene expression in THP1-derived macrophages by qRT-PCR; format: cell-based, human; settings: qRT-PCR (FIG. 2A)
Description: Macrophages were polarized to M1-like phenotype using 50 ng/mL of interferon gamma (IFNγ, 575306, Biolegend) and 100 ng/mL of bacterial lipopolysaccharide (LPS, L2880, Sigma Aldrich, St. Louis, MO) for 24 hours. To polarize macrophages towards the M2-like phenotype, macrophages were stimulated with 20 ng/mL of IL-4 (214-14, PeproTech) and 20 ng/mL of IL-13 (575904, Biolegend). THP1 monocytes were treated with 5 ng/mL of phorbol 12-myristate 13-acetate (PMA) to induce differentiation into macrophages. Once converted to macrophages, media was replaced to remove PMA prior to treatment and/or polarization. Polarization towards M1 and M2 phenotypes was performed with respective recombinant human cytokines from PeproTech: 50 ng/mL of IFNγ (300-02), 20 ng/mL IL-4 (200-04), and 20 ng/mL IL-13 (200-13). 100 ng/mL LPS was also used to polarize toward the M1 phenotype. 3. In vivo Studies.
as §1, with “Samples were then processed immediately or stored at −80° C.” left out, “The 260/280 ratios were routinely over 1.8. Sample cDNA was produced using the iScript cDNA synthesis kit (Bio-Rad, 1708891).” left out

A31A7 macrophages = test: Western Blotting of A31A7 macrophages polarized to M2; format: cell-based, mouse; settings: Western Blot, M2 A31A7 (FIG. 7F)
Description: Cells were treated with the respective compounds for 24 h. Then, cells were lysed using RIPA buffer (ThermoFisher Scientific Pierce, 89901, Waltham, MA) supplemented with 1× protease and phosphatase inhibitor (ThermoFisher Scientific, A32961). Lysates were sonicated at 4° C. for 8 minutes (8 cycles of 30 sec on, 30 sec off). Protein concentration was quantified using a BCA protein assay (ThermoFisher Scientific, 23225) following manufacturer's instructions. Samples were mixed with 6× Laemmli SDS sample reducing buffer (Alfa Aesar, J61337AC, Tewksbury, MA), and boiled at 80° C. for 10 min. Next, samples were loaded on to 4%-20% gels (Bio-Rad, 4561096, Hercules, CA), transferred to PVDF membranes and blocked with Odyssey Blocking Buffer (LI-COR Biosciences, 927-40000, Lincoln, NE). The following primary antibodies used for immunoblotting were purchased from Cell Signaling Technologies (Danvers, MA): tubulin (3873), acetylated tubulin (3971), arginase-1 (93668), and SIRPα (13379). Primary antibody recognizing HDAC6 was purchased from Assay Biotechnology (C0226, Fremont, CA), and iNOS antibody was purchased from ThermoFisher Scientific (PA3-030A). Bands were detected using Azure Biosystems Imaging System c600 (Azure Biosystems, Dublin, CA).

B16F10 melanoma tumors = test: B16F10 melanoma tumor growth in vivo; parameters: species or system mouse; settings: B16F10-bearing mice; legend: NextA 25 mg/kg IP, αCD47 50 μg IT (FIG. 10A)
Excerpt: The antitumor effects of the combination therapy were also observed in the B16F10 melanoma model following the same experimental protocol as in the SM1 model. […] Regarding the immunophenotyping of tumors, there were no significant differences in the immune cell populations in the B16 TME by flow cytometry (FIG. 10B-FIG. 10E). Thus, the discrepancies between the SM1 and B16F10 tumor models could be explained by the scarce infiltration of immune cells in the TME of B16F10 tumors compared to SM1 tumors (5% versus 15%, respectively, FIG. 10F) as well as the poor immunogenicity of B16 tumors.

## CCCCN(Cc1ccc(C(=O)NO)cc1)C(=O)Nc1ccccc1 [NextA, Nexturastat A]
WM1361A melanoma cells
  IFNγ-driven CD47 upregulation: prevented
SIRPα
  SIRPα expression at the transcriptional level: significantly downregulated
A31A7 macrophages
  ARG1 expression: decrease
  HDAC6 inhibitor potency compared with Tubacin and Tubastatin A: most potent HDAC6 inhibitor
  acetylated tubulin, a marker for HDAC6 inhibition: robust increase
B16F10 melanoma tumors
  B16 melanoma tumor growth: did not decrease
